Assays:
Format in all cases: cell-based
[1] = target: T1, Exon19 deletion EGFR (Homo sapiens, UniProt P00533, DEL746-750); test: Exon19 deletion EGFR (activating single mutant) cellular phosphorylation assay; conditions: PC9 human lung cells (Exon 19 deletion EGFR); endogenous p-EGFR in cell lysates by ELISA; 2 h with compound; read-out: Assay 1 (IC50)
T1 construct: Assays to measure cellular phosphorylation of endogenous p-EGFR in cell lysates; endogenous in cells; host or cells: PC9 (human lung cell line)
Procedure: Assay 1: Exon19 Deletion EGFR (Activating Single Mutant) Cellular Phosphorylation Assay
The human lung cell line PC9 (Exon 19 deletion EGFR) were obtained from the American type Culture Collection. […] Cells were grown in a humidified incubator at 37° C. with 5% CO2. Assays to measure cellular phosphorylation of endogenous p-EGFR in cell lysates were carried out according to the protocol described in the R&D Systems DuoSet IC Human Phospho-EGF R ELISA (R&D Systems catalogue number #DYC1095). 40 μL of cells were seeded (10000 cells/well) in growth medium in Corning black, clear-bottomed 384-well plates and incubated at 37° C. with 5% CO2 overnight. […] Plates were incubated for a further 2 h, then following aspiration of medium, 40 μL 1× lysis buffer was added to each well. Greiner black high bind 384-well plates were coated with capture antibody and then blocked with 3% BSA. Following removal of block, […], of lysate were transferred to the Greiner black high bind 384-well plates and incubated for 2 hours. Following aspiration and washing of the plates with PBS, 20 μL of detection antibody were added and incubated for 2 hours. […] The data obtained with each compound was exported into a suitable software package (such as Origin) to perform curve fitting analysis.

[2] = target: T2, L858R/T790M EGFR (Homo sapiens, UniProt P00533, L858R/T790M); test: L858R/T790M EGFR (double mutant) cellular phosphorylation assay; conditions: NCI-H1975 human lung cells; endogenous p-EGFR in cell lysates by ELISA; 2 h with compound
T2 construct: Assays to measure cellular phosphorylation of endogenous p-EGFR in cell lysates; endogenous in cells; host or cells: NCI-H1975 (human lung cell line)
Procedure: Assay 2: L858R/T790M EGFR (Double Mutant) Cellular Phosphorylation Assay
The human lung cell lines NCI-H1975 were obtained from the American type Culture Collection. […] Cells were grown in a humidified incubator at 37° C. with 5% CO2.
Assays to measure cellular phosphorylation of endogenous p-EGFR in cell lysates were carried out according to the protocol described in the R&D Systems DuoSet IC Human Phospho-EGF R ELISA (R&D Systems catalogue number #DYC1095).
40 μL of cells were seeded (10000 cells/well) in growth medium in Corning black, clear-bottomed 384-well plates and incubated at 37° C. with 5% CO2 overnight. […] Plates were incubated for a further 2 h and following aspiration of medium, 40 μL 1× lysis buffer was added to each well. Greiner black high bind 384-well plates were coated with capture antibody and then blocked with 3% BSA. Following removal of block, 15 μL of lysate were transferred to the Greiner black high bind 384-well plates and incubated for 2 hours. Following aspiration and washing of the plates with PBS, 20 μL of detection antibody were added and incubated for 2 hours. […] 20 μL QuantaBlu stop solution were added to plates and fluorescence read on an Envision plate reader using
The data obtained with each compound was exported into a suitable software package (such as Origin) to perform curve fitting analysis.

[3] = target: T3, Wild-type EGFR (Homo sapiens, UniProt P00533); test: Wild-type EGFR cellular phosphorylation assay; conditions: LoVo human colon cells; endogenous p-EGFR in cell lysates by ELISA; 2 h with compound, then stimulated 100 ng/ml for 10 minutes; read-out: Assay 3 (IC50)
T3 construct: Assays to measure cellular phosphorylation of endogenous p-EGFR in cell lysates; endogenous in cells; host or cells: LoVo (human colon cell line)
Procedure: Assay 3: Wild-Type EGFR Cellular Phosphorylation Assay
The human colon cell line LoVo were obtained from the American type Culture Collection. […] Cells were grown in a humidified incubator at 37° C. with 5% CO2. Assays to measure cellular phosphorylation of endogenous p-EGFR in cell lysates were carried out according to the protocol described in the R&D Systems DuoSet IC Human Phospho-EGF R ELISA (R&D Systems catalogue number #DYC1095). 40 μL of cells were seeded (15000 cells/well) in growth medium in Corning black, clear-bottomed 384-well plates and incubated at 37° C. with 5% CO2 overnight. […] Plates were incubated for a further 2 h then stimulated with 100 ng/ml for 10 minutes and following aspiration of medium, 40 μL 1× lysis buffer was added to each well. Greiner black high bind 384-well plates were coated with capture antibody and then blocked with 3% BSA. […] Following aspiration and washing of the plates with PBS, 20 μL of detection antibody were added and incubated for 2 hours. […] The data obtained with each compound was exported into a suitable software package (such as Origin) to perform curve fitting analysis.

T1 sequence (P00533 with tags, fused parts or gaps DEL746-750): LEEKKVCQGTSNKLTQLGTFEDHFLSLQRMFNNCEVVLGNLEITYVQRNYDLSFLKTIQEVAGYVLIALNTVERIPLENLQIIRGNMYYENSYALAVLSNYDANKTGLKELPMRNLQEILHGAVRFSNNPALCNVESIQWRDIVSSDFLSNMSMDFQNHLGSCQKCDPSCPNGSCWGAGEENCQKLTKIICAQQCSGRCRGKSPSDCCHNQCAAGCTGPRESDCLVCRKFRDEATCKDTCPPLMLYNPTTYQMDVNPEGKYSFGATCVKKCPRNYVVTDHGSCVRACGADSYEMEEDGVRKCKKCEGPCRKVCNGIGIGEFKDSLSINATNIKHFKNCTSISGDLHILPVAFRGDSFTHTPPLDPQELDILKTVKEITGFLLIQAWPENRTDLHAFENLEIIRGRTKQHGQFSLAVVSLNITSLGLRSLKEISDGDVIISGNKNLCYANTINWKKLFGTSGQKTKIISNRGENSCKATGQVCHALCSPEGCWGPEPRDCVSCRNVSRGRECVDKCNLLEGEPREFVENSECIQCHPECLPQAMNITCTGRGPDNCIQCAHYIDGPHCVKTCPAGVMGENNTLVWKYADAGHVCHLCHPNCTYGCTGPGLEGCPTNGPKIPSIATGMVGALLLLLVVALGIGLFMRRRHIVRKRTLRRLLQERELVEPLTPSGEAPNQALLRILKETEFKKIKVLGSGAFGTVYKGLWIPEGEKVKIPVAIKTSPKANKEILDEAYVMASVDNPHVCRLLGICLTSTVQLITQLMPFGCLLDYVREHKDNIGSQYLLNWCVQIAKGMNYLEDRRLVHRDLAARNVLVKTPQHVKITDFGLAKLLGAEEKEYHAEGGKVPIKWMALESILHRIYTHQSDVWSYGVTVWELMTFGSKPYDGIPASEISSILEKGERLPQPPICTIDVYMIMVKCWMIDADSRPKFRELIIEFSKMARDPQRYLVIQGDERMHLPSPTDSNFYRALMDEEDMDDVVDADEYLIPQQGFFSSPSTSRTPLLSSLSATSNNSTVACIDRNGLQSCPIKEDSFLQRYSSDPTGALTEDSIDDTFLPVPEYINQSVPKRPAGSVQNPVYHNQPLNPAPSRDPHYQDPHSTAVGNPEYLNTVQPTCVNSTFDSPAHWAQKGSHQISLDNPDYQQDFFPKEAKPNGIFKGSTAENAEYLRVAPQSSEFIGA
T2 sequence (P00533 25-1210 T790M/L858R): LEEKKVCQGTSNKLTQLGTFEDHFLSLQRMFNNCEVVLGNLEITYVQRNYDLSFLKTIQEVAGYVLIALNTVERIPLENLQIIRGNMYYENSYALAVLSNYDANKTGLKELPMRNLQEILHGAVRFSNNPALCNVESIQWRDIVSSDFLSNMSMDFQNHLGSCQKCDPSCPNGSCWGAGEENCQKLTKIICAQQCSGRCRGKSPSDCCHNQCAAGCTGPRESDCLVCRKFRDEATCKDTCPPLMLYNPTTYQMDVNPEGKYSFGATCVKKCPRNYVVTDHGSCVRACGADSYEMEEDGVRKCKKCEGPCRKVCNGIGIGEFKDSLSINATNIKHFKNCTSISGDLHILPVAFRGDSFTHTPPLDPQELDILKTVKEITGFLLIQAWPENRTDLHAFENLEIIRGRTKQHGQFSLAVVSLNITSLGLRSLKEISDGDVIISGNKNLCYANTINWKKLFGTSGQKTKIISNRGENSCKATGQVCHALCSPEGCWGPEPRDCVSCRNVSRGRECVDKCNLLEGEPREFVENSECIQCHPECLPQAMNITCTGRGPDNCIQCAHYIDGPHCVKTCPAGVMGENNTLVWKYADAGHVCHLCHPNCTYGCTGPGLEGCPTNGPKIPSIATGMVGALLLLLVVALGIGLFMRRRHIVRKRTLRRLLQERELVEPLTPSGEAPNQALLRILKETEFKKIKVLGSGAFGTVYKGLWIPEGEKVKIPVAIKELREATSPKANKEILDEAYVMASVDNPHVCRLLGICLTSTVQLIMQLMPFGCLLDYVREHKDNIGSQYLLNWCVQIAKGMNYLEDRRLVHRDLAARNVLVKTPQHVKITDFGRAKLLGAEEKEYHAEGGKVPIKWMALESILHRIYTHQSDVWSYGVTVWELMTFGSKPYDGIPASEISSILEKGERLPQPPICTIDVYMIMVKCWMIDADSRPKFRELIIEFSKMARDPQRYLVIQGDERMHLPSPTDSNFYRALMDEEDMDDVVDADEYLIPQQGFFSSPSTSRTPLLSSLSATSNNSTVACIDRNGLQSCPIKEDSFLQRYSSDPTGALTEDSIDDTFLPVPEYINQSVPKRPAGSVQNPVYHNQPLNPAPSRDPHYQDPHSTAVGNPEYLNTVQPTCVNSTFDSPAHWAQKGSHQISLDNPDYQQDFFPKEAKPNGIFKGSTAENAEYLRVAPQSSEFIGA
T3 sequence (P00533 25-1210): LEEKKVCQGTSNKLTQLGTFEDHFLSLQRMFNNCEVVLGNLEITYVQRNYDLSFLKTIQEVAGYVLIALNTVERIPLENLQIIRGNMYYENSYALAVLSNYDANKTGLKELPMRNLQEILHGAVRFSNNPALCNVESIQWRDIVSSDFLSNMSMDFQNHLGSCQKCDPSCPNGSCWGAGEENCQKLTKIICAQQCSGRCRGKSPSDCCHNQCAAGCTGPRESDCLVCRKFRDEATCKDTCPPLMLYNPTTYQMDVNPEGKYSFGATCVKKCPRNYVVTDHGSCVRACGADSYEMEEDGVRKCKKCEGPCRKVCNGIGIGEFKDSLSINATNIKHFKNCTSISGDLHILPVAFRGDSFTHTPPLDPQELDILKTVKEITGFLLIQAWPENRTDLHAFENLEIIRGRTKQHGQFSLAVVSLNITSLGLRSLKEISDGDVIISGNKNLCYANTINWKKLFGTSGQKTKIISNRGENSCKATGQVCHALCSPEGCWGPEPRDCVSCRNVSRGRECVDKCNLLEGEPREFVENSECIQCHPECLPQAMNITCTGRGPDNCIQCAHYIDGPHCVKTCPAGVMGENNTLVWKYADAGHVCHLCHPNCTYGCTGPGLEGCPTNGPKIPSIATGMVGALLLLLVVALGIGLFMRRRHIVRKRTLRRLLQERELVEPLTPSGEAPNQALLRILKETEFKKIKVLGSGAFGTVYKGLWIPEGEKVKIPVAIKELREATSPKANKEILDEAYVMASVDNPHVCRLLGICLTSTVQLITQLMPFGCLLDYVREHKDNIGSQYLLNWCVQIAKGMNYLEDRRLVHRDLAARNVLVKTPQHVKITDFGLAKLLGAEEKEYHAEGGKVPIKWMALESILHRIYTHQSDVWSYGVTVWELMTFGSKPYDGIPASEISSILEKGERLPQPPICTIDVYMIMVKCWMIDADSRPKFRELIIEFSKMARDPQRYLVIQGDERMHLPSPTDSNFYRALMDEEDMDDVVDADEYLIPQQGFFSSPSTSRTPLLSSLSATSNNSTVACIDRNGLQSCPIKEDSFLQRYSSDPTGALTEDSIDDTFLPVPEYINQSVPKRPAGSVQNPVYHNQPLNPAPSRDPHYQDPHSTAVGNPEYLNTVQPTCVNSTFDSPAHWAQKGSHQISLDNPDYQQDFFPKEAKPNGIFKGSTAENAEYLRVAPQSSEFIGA

IC50 [1] [nM] | IC50 [2] [nM] | IC50 [3] [nM] | Compound
8.57 | 6.77 | 262 | C=CC(=O)Nc1cc(Nc2ncc(C)c(-c3cn(C)c4ccccc34)n2)c(OC)cc1N1CC(N(C)C)C1 [Example 35, N-(2-{3-Dimethylaminoazetidin-1-yl}-4-methoxy-5-{[5-methyl-4-(1-methylindol-3-yl)pyrimidin-2-yl]amino}phenyl)prop-2-enamide]
43.3 | 32.7 | 1050 | C=CC(=O)Nc1cc(Nc2nccc(-c3cn(C)c4ccccc34)n2)c(OC)cc1N1CC(N(C)C)C1 [Example 36, N-(2-{3-Dimethylaminoazetidin-1-yl}-4-methoxy-5-{[4-(1-methylindol-3-yl)pyrimidin-2-yl]amino}phenyl)prop-2-enamide]
12.4 | 14.8 | > 30000 | C=CC(=O)Nc1cc(Nc2ncc(C#N)c(-c3cnn4ccccc34)n2)c(OC)cc1N1CC(N(C)C)C1 [Example 40, N-{5-[(5-Cyano-4-pyrazolo[1,5-a]pyridin-3-ylpyrimidin-2-yl)amino]-2-[3-dimethylaminoazetidin-1-yl]-4-methoxyphenyl}prop-2-enamide]
28.6 | 29.5 | 1840 | C=CC(=O)Nc1cc(Nc2nccc(-c3cn(C)c4ccccc34)n2)c(OC)cc1N1CC[C@@H]2CN(C)C[C@@H]21 [Example 41, N-(2-{(3aR,6aR)-5-Methyl-2,3,3a,4,6,6a-hexahydropyrrolo[3,4-b]pyrrol-1-yl}-4-methoxy-5-{[4-(1-methylindol-3-yl)pyrimidin-2-yl]amino}phenyl)prop-2-enamide]
18.2 | 10.6 | 1340 | C=CC(=O)Nc1cc(Nc2nccc(-c3cnn4c3CCCC4)n2)c(OC)cc1N1CC[C@@H]2CN(C)C[C@@H]21 [Example 43, N-(2-{(3aR,6aR)-5-Methyl-2,3,3a,4,6,6a-hexahydropyrrolo[3,4-b]pyrrol-1-yl}-4-methoxy-5-{[4-(4,5,6,7-tetrahydropyrazolo[1,5-a]pyridin-3-yl)pyrimidin-2-yl]amino}phenyl)prop-2-enamide]

Second part, the molecule before the results:

Compound | IC50 [1] [nM] | IC50 [2] [nM] | IC50 [3] [nM]
C=CC(=O)Nc1cc(Nc2ncc(Cl)c(-c3cn(C)c4ccccc34)n2)c(OC)cc1N1CC(N(C)C)C1 [Example 34, N-(5-{[5-Chloro-4-(1-methylindol-3-yl)pyrimidin-2-yl]amino}-2-{3-dimethylaminoazetidin-1-yl}-4-methoxyphenyl)prop-2-enamide] | 9.04 | 3.77 | 153
C=CC(=O)Nc1cc(Nc2ncc(Cl)c(-c3c[nH]c4ccccc34)n2)c(OC)cc1N1CC(N(C)C)C1 [Example 37, N-(5-{[5-Chloro-4-(1H-indol-3-yl)pyrimidin-2-yl]amino}-2-{3-dimethylaminoazetidin-1-yl}-4-methoxyphenyl)prop-2-enamide] | 2.11 | 1.81 | 48.6
C=CC(=O)Nc1cc(Nc2ncc(C#N)c(-c3cnn4ccccc34)n2)c(OC)cc1N1CC[C@@H](N(C)C)C1 [Example 38, N-{5-[(5-Cyano-4-pyrazolo[1,5-a]pyridin-3-ylpyrimidin-2-yl)amino]-2-[(3R)-3-dimethylaminopyrrolidin-1-yl]-4-methoxyphenyl}prop-2-enamide] | 5.09 | 4.41 | 538
C=CC(=O)Nc1cc(Nc2ncc(C#N)c(-c3cnn4ccccc34)n2)c(OC)cc1N(C)CCN(C)C [Example 39, N-{5-[(5-Cyano-4-pyrazolo[1,5-a]pyridin-3-ylpyrimidin-2-yl)amino]-2-[2-dimethylaminoethyl-methylamino]-4-methoxyphenyl}prop-2-enamide] | 2.34 | 1.01 | 248
C=CC(=O)Nc1cc(Nc2nccc(-c3cnn4c3CCCC4)n2)c(OC)cc1N(C)CCN(C)C [Example 42, N-(2-{2-Dimethylaminoethyl-methylamino}-4-methoxy-5-{[4-(4,5,6,7-tetrahydropyrazolo[1,5-a]pyridin-3-yl)pyrimidin-2-yl]amino}phenyl)prop-2-enamide] | 5.19 | 5.16 | 454
